Tests used:
Enterococcus. faecium = assay: Antimicrobial efficacy of HOCl skin cleanser (Table 1); format: cell-based; conditions: 0.01% HOCl; 30 seconds
[1] = Randomized double blind placebo controlled trial as sexual cleanser; format: in vivo, human; conditions: six months
Source text: The purpose of this study was to evaluate the real world use and effect of the solution in a group of 47 willing participants located in Cartagena, Colombia. These willing participants were all active sex workers, whom on a weekly basis, were actively engaged in sexual intercourse with the general public. This demographic was selected as a “high risk” group of individuals that frequently encounter many forms of sexually transmitted infections. Throughout the study, the “HOCl test” group was compared with the “placebo” group in an effort to gauge the efficacy of prevention and treatment for contact-to-contact sexually transmitted infections as well as common infections related to sex. […] The patients were required to complete extensive evaluations regarding their sexual health and lifestyles. The duration of the study was six months.

host cells = conditions: 0.04% HOCl aqueous solution
Enterococcus faecalis = assay: Antimicrobial efficacy of HOCl skin cleanser (Table 1); format: cell-based; conditions: 0.01% HOCl; 30 seconds
MRSA = assay: Efficacy at 30 seconds (Table 2); format: cell-based, methicillin-resistant staphylococcus aureus; conditions: 0.01 to 0.05% aqueous solution
[2] = Sub. Chronic Toxicity. 90 days; format: in vivo
Source text: (§1) Table 5. contains the results of several acute and sub-chronic toxicity tests.

Bovine Diarrhea virus = assay: Efficacy at 30 seconds (Table 2); format: cell-based; conditions: 0.01 to 0.05% aqueous solution
[3] = test system: S. aureus Linezolid Resistant; assay: Efficacy at 30 seconds (Table 2); format: cell-based; conditions: 0.01 to 0.05% aqueous solution
Acute Dermal Toxicity = format: in vivo; conditions: Albino New Zealand Rabbits, 0.05% HOCl solution, males and females
Source text: as §1

E. coli NDM-1 = assay: Efficacy at 30 seconds (Table 2); format: cell-based; conditions: 0.01 to 0.05% aqueous solution
Teratogenicity = format: in vivo
Source text: as §1

Klebsiella oxytoca = assay: Antimicrobial efficacy of HOCl skin cleanser (Table 1); format: cell-based; conditions: 0.01% HOCl; 30 seconds
Enterobacter cloacae = assay: as above; format: cell-based; conditions: 0.01% HOCl; 30 seconds
Human Papillomavirus = assay: Efficacy at 30 seconds (Table 2); format: cell-based; conditions: 0.01 to 0.05% aqueous solution
HIV (non-glp) = assay: Antimicrobial efficacy of HOCl skin cleanser (Table 1); format: cell-based; conditions: 0.01% HOCl; 30 seconds
P. mirabilis = assay: ASTM E2315 Time Kill Assay for Antimicrobial Agents; format: cell-based; conditions: 0.046% HOCl aqueous solution; 30 seconds; high organic load
Protocol: (§2) Table 3. below represents the efficacy of 0.046% aqueous hypochlorous acid solution in the presence of high organic load. ASTM E2315 Time Kill Assay for Antimicrobial Agents. The study was performed in ATS labs in Minnesota recommended by the U.S. FDA's Tentative Final Monograph for OTC Healthcare Antiseptic Drug. […] Additional times were evaluated: 1 minute, 5 minutes, and 10 minutes, all with and without organic soil (Using 10% whole milk and 5% Fetal Bovine Serum). The trend in the efficiency is maintained under the same proportions.

Enterobacter aerogenes = assay: as above; format: cell-based; conditions: 0.046% HOCl aqueous solution; 30 seconds; high organic load
Protocol: as §2

A. baumanii = assay: as above; format: cell-based; conditions: 0.046% HOCl aqueous solution; 30 seconds; high organic load
Protocol: as §2

S. Epidermidis = assay: as above; format: cell-based; conditions: 0.046% HOCl aqueous solution; 30 seconds; high organic load
Protocol: as §2

P. aeruginosa = assay: as above; format: cell-based; conditions: 0.046% HOCl aqueous solution; 30 seconds; high organic load
Protocol: as §2

E. faecium = assay: as above; format: cell-based; conditions: 0.046% HOCl aqueous solution; 30 seconds; high organic load
Protocol: as §2

K. pneumoniae - ESBL = assay: as above; format: cell-based; conditions: 0.046% HOCl aqueous solution; 30 seconds; high organic load
Protocol: as §2

S. marcenscens = assay: as above; format: cell-based; conditions: 0.046% HOCl aqueous solution; 30 seconds; high organic load
Protocol: as §2

K. pneumoniae NDM-1 = assay: as above; format: cell-based; conditions: 0.046% HOCl aqueous solution; 30 seconds; high organic load
Protocol: as §2

K. oxytoca = assay: as above; format: cell-based; conditions: 0.046% HOCl aqueous solution; 30 seconds; high organic load
Protocol: as §2

Staphylococcus aureus = assay: Antimicrobial efficacy of HOCl skin cleanser (Table 1); format: cell-based; conditions: 0.01% HOCl; 30 seconds
S. pyogenes = assay: Efficacy at 30 seconds (Table 2); format: cell-based; conditions: 0.01 to 0.05% aqueous solution
[4] = Biocompatibility and animal testing, overall; format: in vivo; conditions: 0.05% hypochlorous acid solution
Source text: The extensive biocompatibility and animal testing that have been performed supports the safety and efficacy of the 0.05% hypochlorous acid solution. […] Due to the safety of the solution, the hypochlorous acid solution can be used repeatedly without altering or changing the properties of the skin and mucous membranes.

Pseudomona aeruginosa = assay: Antimicrobial efficacy of HOCl skin cleanser (Table 1); format: cell-based; conditions: 0.01% HOCl; 30 seconds
[5] = Absorption through intact skin; format: in vitro ADME; conditions: low concentrations of hypochlorous acid
Source text: Thus, the potential for producing skin reactions is extremely low.

[6] = HOCl (0.046%) test group, 24 patients

For `OCl` [HOCl, hypochlorous acid], the “% Reduction” value (Enterococcus. faecium) was 99.99%, the “Log Reduction” value (Enterococcus. faecium) was over 6.21 Log10 and the rashes from irritation [1, 6] was “two”. For the same molecule, the “rashes from irritation, increase” value [1, 6] was 8.3%, the total infections [1, 6] was “three” and the “total infections, increase” value [1, 6] was 13.5%. The urinary tract infection [1, 6] was “one”, the “urinary tract infection, increase” value [1, 6] was 4.2% and the yeast infections [1, 6] was “zero”. For the same molecule, the “reported contact-to-contact STIs” value ([1]; HOCl (0.046%) test group, 24 patients, 85% confidence level) was “zero”, the “change of the pH of the vagina” value ([1]; all 47 patients) was “No significant change” and the “adverse effects to the host cells” value (host cells) was “no adverse effects to the host cells”. For the same molecule, the “% Reduction” value (Enterococcus faecalis) was 99.999%, the “Log Reduction” value (Enterococcus faecalis) was over 6.5 Log10 and the “% Reduction” value (MRSA) was 99.999%. For the same molecule, the “Log Reduction” value (MRSA) was over 5.89 Log10, the mortalities ([2]; 90 days, 1000 mg/Kg Body weight, Wistar Rats) was “No mortalities, considered” and the toxicity assessment ([2]; rat, in vivo, 1000 mg/kg) was “non-toxic”. The “% Reduction” value (Bovine Diarrhea virus) was 99.999%, the “Log Reduction” value (Bovine Diarrhea virus) was over 5.35 Log10 and the “% Reduction” value [3] was 99.999%. For the same molecule, the “Log Reduction” value [3] was over 5.84 Log10, the “Acute Lethal Dose” value (Acute Dermal Toxicity) was > 5000 mg/kg body weight for males and the “% Reduction” value (E. coli NDM-1) was 99.999%. The “Log Reduction” value (E. coli NDM-1) was over 5.47 Log10, the mortalities (Teratogenicity; Oral administration of 1000 mg/Kg/day, Females and Pregnant Wistar rats) was “No mortalities, considered” and the toxicity assessment (Teratogenicity; rat, in vivo, po, 1000 mg/kg/day) was “non-toxic”. For the same molecule, the “% Reduction” value (Klebsiella oxytoca) was 99.99%, the “Log Reduction” value (Klebsiella oxytoca) was over 5.50 Log10 and the “% Reduction” value (Enterobacter cloacae) was 99.99%. The “Log Reduction” value (Enterobacter cloacae) was over 5.76 Log10, the “% Reduction” value (Human Papillomavirus) was 99.999% and the “Log Reduction” value (Human Papillomavirus) was over 5.35 Log10. The “% Reduction” value (HIV (non-glp)) was 99.999%, the “Log Reduction” value (HIV (non-glp)) was over 6.1 Log10 and the “% Reduction” value (P. mirabilis) was 99.999%. For the same molecule, the “Log Reduction” value (P. mirabilis) was over 5.65 Log10, the “% Reduction” value (Enterobacter aerogenes) was 99.999% and the “Log Reduction” value (Enterobacter aerogenes) was over 5.90 Log10. The “% Reduction” value (A. baumanii) was 99.999%, the “Log Reduction” value (A. baumanii) was over 6.15 Log10 and the “% Reduction” value (S. Epidermidis) was 99.999%. The “Log Reduction” value (S. Epidermidis) was over 5.60 Log10, the “% Reduction” value (P. aeruginosa) was 99.999% and the “Log Reduction” value (P. aeruginosa) was over 5.96 Log10. The “% Reduction” value (E. faecium) was 99.999%, the “Log Reduction” value (E. faecium) was over 5.32 Log10 and the “% Reduction” value (K. pneumoniae - ESBL) was 99.999%. For the same molecule, the “Log Reduction” value (K. pneumoniae - ESBL) was over 5.76 Log10, the “% Reduction” value (S. marcenscens) was 99.999% and the “Log Reduction” value (S. marcenscens) was over 5.37 Log10. For the same molecule, the “% Reduction” value (K. pneumoniae NDM-1) was 99.999%, the “Log Reduction” value (K. pneumoniae NDM-1) was over 5.59 Log10 and the “% Reduction” value (K. oxytoca) was 99.999%. The “Log Reduction” value (K. oxytoca) was over 5.50 Log10, the “% Reduction” value (Staphylococcus aureus) was 99.999% and the “Log Reduction” value (Staphylococcus aureus) was over 6.1 Log10. The “% Reduction” value (S. pyogenes) was over 99.99%, the “Log Reduction” value (S. pyogenes) was over 4.97Log10 and the “adverse effects to the skin or mucous membranes” value [4] was “without adverse effects to the skin or mucous membranes”. The “% Reduction” value (Pseudomona aeruginosa) was 99.99%, the “Log Reduction” value (Pseudomona aeruginosa) was over 5.94 Log10 and the “absorption of the compound through intact skin” value [5] was “no evidence of absorption of the compound through intact skin”.
